Data as given in patent US6867207B2, “IL-5 inhibiting 6-azauracil derivatives” (Janssen Pharmaceutica N.V., priority 1997, dated 2005).

Experiments:
IL-5 production = assay: In vitro inhibition of IL-5 production in human blood (phytohemagglutinin-stimulated whole blood, ELISA);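 also: values marked with an asterisk were tested at 10 µM and unmarked values at 1 µM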; assay type: cell-based; conditions: test dose 1×10^−6 M, 48 hours, read-out: % inh. (percentage inhibition of IL-5 production)
How it was run: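 Heparinised blood from healthy male donors, diluted threefold in RPMI 1640, preincubated 60 min at 37° C with compound (0.02% DMSO vehicle), then stimulated with 2 μg/mL phytohemagglutinin for 48 h. Supernatant IL-5 measured by ELISA; percentage inhibition at 1×10^−6 M or 1×10^−5 M.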

| Structure (SMILES) | melting point [°C] | inhibition at 1 µM (IL-5 production) [%] |
| --- | --- | --- |
| O=C(O)c1sc(C(c2ccc(Cl)cc2)c2c(Cl)cc(-n3ncc(=O)[nH]c3=O)cc2Cl)nc1-c1ccccc1 (racemic) [Compound 299, (±)-2-[(4-chlorophenyl)[2,6-dichloro-4-(4,5-dihydro-3,5-dioxo-1,2,4-triazin-2(3H)-yl)phenyl]-methyl]-4-phenyl-5-thiazolcarboxylic acid] | 206 | 38 |
| CN(C)Cc1sc(C(c2ccc(Cl)cc2)c2c(Cl)cc(-n3ncc(=O)[nH]c3=O)cc2Cl)nc1-c1ccccc1F (racemic) [Compound 325, (±)-2-[4-[(4-chlorophenyl)[5-[(dimethylamino)methyl]-4-(2-fluorophenyl)-2-thiazolyl]methyl]-3,5-dichlorophenyl]-1,2,4-triazine-3,5(2H,4H)-dione] | 250 | 95 |
| O=C(CO)Nc1ccccc1-c1nnc(C(c2ccc(Cl)cc2)c2c(Cl)cc(-n3ncc(=O)[nH]c3=O)cc2Cl)o1 (racemic) [Compound 213, (±)-N-[2-[5-[(4-chlorophenyl)[2,6-dichloro-4-(4,5-dihydro-3,5-dioxo-1,2,4-triazin-2(3H)-yl)phenyl]methyl]-1,3,4-oxadiazol-2-yl]phenyl]-2-hydroxyacetamide] | 235 | 32 |
| CN(C)C(=O)c1sc(C(c2ccc(Cl)cc2)c2c(Cl)cc(-n3ncc(=O)[nH]c3=O)cc2Cl)nc1-c1ccccc1 (racemic) [Compound 303, (±)-N,N-dimethyl-2-[(4-chlorophenyl)[2,6-dichloro-4-(4,5-dihydro-3,5-dioxo-1,2,4-triazin-2(3H)-yl)phenyl]methyl]-4-phenylthiazol-5-carboxamide] | 150 | 85 |

More lines, main results first:

| melting point [°C] | Structure (SMILES) | inhibition at 1 µM (IL-5 production) [%] |
| --- | --- | --- |
| 90 | O=c1cnn(-c2ccc(C(c3ccc(Cl)cc3)c3nc(-c4ccccc4)cs3)c(Cl)c2)c(=O)[nH]1 (racemic) [Compound 419, (±)-2-[3-chloro-4-[(4-chlorophenyl)(4-phenyl-2-thiazolyl)methyl]phenyl]-1,2,4-triazine-3,5(2H,4H)-dione] | 5 |
| 170 | NCc1sc(C(c2ccc(Cl)cc2)c2c(Cl)cc(-n3ncc(=O)[nH]c3=O)cc2Cl)nc1-c1ccccc1 (racemic) [Compound 329, (±)-2-[4-[[5-(aminomethyl)-4-phenyl-2-thiazolyl](4-chlorophenyl)methyl]-3,5-dichlorophenyl]-1,2,4-triazine-3,5(2H,4H)-dione] | 88 |
| 128 | O=c1cnn(-c2cc(Cl)c(C(c3ccc(Cl)cc3)c3nc(-c4ccccc4)no3)c(Cl)c2)c(=O)[nH]1 (racemic) [Compound 429, (±)-2-[3,5-dichloro-4-[(4-chlorophenyl)(3-phenyl-1,2,4-oxadiazol-5-yl)methyl]phenyl]-1,2,4-triazin-3,5(2H,4H)-dione] | 78 |
